The source of these data is patent publication US20110130285A1, “COMPOSITION FOR PROMOTING ROOT NODULE FORMATION OF PLANTS AND A METHOD FOR PROMOTING ROOT NODULE FORMATION OF PLANTS” (priority 2009, published 2011).

The structures appear in SMILES notation.

The subject of experiment [1] is soybean (Tanba-kuro, Chusei-hikari-kuro, Sachiyutaka). The experiment can be described thus: Inosine sprayed on soil surface: root nodule formation and growth of soybean (Example 1). The format is in vivo. Conditions: 2 ppm and 20 ppm inosine solution, 250 ml sprayed on soil surface 7, 10 and 15 days after seeding, measured 20 days after seeding, all varieties Tanba-kuro, vs distilled water. An excerpt: Various varieties of soybeans (black soybeans: Tanba-kuro and Chusei-hikari-kuro, white soybean: Sachiyutaka) were each seeded in 0.6 L of soil (marketed vermiculite, fertilizer was not added) contained in each of No. 4 pots (diameter: 12 cm). For each variety, 7 individuals showing good growth before development of primary leaf were selected per pot. Seven individuals were used for each of the following treatment groups.
2. 2 ppm Inosine solution group
3. 20 ppm Inosine solution group
4. 100 ppm Inosine solution group
Each solution in a volume of 250 ml was splayed on the soil surface in the pot, 7, 10 and 15 days after the seeding. The inosine concentrations in the soil given as a one-time application were 0.83 ppm for the 2 ppm solution group, 8.3 ppm for the 20 ppm solution group, and 41.7 ppm for the 100 ppm solution group, which were equivalent to 442 g/ha, 4,425 g/ha, and 22.1 kg/ha, respectively. The inosine solutions were prepared by diluting a 2% inosine solution (Ikuou, Shoko Agri Co., Ltd., containing 0.52% KOH as pH modifier in order to promote dissolution of inosine) with distilled water.
Twenty days after the seeding, the number of root nodules (FIG. 1) and the dry weight of aboveground parts (FIG. 2) were measured.

Experiment [2] concerns Soybean (Sachiyutaka). Nature of the experiment: Inosine applied by irrigation into soybean-growing black soil (Example 2). The format is in vivo. The following applies: 34 days after seeding; for Dry weight of aboveground part / Dry weight of underground part: 2 ppm inosine, irrigation, relative value, distilled water group taken as 100. On the procedure: Soybean (Sachiyutaka) was seeded in 1 kg of soil (marketed black soil, moisture content: 35%) contained in each of the pots. Calcium superphosphate and potassium sulfate were added as fertilizers in the amounts of 40 mg/pot, in terms of P2O5 and K2O, respectively. The treatment groups included the distilled water group and the 2 ppm inosine solution group. One individual showing good growth before development of a primary leaf was selected from each pot, and five individuals were used for each treatment group. Either the distilled water or the inosine solution in a volume of 250 ml was applied to the soil in the pot by irrigation, 10, 14 and 19 days after the seeding. The inosine concentration in the soil given as a one-time application was 0.5 ppm, which was equivalent to 325 g/ha, in the 2 ppm solution group. Thirty-four days after the seeding, the number of root nodules (FIG. 3), the dry weight of root nodules (FIG. 4), the dry weight of aboveground parts, and the dry weight of underground parts (Table 1) were measured. The dry weight of root nodules, the dry weight of aboveground parts, and the dry weight of underground parts were indicated with relative values based on the values of the distilled water group, which were taken as 100. The application of the 2 ppm inosine solution increased all of the number of root nodules, the dry weight of root nodules, the dry weight of aboveground parts and the dry weight of underground parts.

Experiment [3] deals with Soybean (Sachiyutaka). Nature of the experiment: Inosine applied to soybean by foliar spray, soil inoculated with Bradyrhizobium japonicum (Example 3). The format is in vivo. Conditions: 32 days after seeding; for Dry weight of aboveground part / Dry weight of underground part: foliar spray, table prints Inosine (ppm) 2, text 10 ppm, relative value, distilled water group taken as 100. On the procedure:
Soybean (Sachiyutaka) was seeded in 0.7 kg of soil (marketed black soil, moisture content: 35%) contained in each of pots. Calcium superphosphate and potassium sulfate were added as fertilizers in the amounts of 28 mg/pot, in terms of P2O5 and K2O, respectively. As root nodule bacterium, “Mame-Zo” (containing a soybean root nodule bacterium, Bradyrhizobium japonicum, Tokachi Federation of Agricultural Cooperative Associations, http://www.nokyoren.or.jp/material.html) was added to the soil at a root nodule bacterium concentration of 10^4 cfu/cm^3 of soil. The treatment groups included the distilled water group and the 10 ppm inosine solution group. One individual showing good growth before development of a primary leaf was selected from each pot, and five individuals were used for each treatment group. Either distilled water or the inosine solution in a volume of 5 ml was applied by foliar spray, 10, 14 and 19 days after the seeding. To the distilled water and the inosine solution, a spreading composition (Approach BI, Kao Corp., “Approach” is a registered trade name of Kao Corp.) was added at a concentration of 0.1 v/v %. The spray amount of inosine given as a one-time application was 10 g/ha in the 10 ppm inosine solution group. Thirty-two days after the seeding, the number of root nodules (FIG. 5), the dry weight of root nodules (FIG. 6), the dry weight of aboveground parts, and the dry weight of underground parts (Table 2) were measured. The dry weight of root nodules, the dry weight of aboveground parts, and the dry weight of underground parts were indicated with relative values based on the values of the distilled water group, which were taken as 100. The application of the 10 ppm inosine solution increased all of the number of root nodules, the dry weight of root nodules, the dry weight of aboveground parts and the dry weight of underground parts.

The subject of experiment [4] is Soybean (Sachiyutaka). The experiment can be described thus: Inosine applied by irrigation to soybean-growing vermiculite, low and high soil nutrient (Example 4). The format is in vivo. The following applies: 2 ppm and 20 ppm inosine solutions, irrigation 10, 17 and 25 days after seeding; 33 days after seeding; same soil fertilizer condition (low or high soil nutrient); vs distilled water groups. The procedure: Soybean (Sachiyutaka) was transplanted to 1.4 L of soil (vermiculite, moisture content: 50%) contained in each of pots (diameter: 15 cm). The treatment groups included the distilled water groups (Groups 1 and 4) and the inosine application groups (Groups 2, 3, 5 and 6), in which 2 ppm and 20 ppm inosine solutions were applied (Ikuou [Shoko Agri Co., Ltd.] was diluted with distilled water and applied), as shown in Table 3. The distilled water groups and the inosine application groups both include a group in which calcium superphosphate and potassium sulfate were added as fertilizers in amounts of 40 mg/pot in terms of P2O5 and K2O, respectively, and a group in which an organic fertilizer (“Hanasaku Hiryo (1.5-9-4.5)”, Tosho Co., Ltd.) was added in an amount of 2 g/pot (N:P2O5:K2O=30:180:90 mg/pot). The root nodule bacterium (“Mame-Zo”, Tokachi Federation of Agricultural Cooperative Associations) was added at a concentration of 4×10^4 cfu/cm^3 of soil. One individual showing good growth before development of a primary leaf was selected from each pot, and five individuals were used for measurement of each treatment group. Either distilled water or each of the inosine solutions in a volume of 250 ml was applied by irrigation, 10, 17 and 25 days after the seeding. The inosine concentrations in the soil given as a one-time application were 0.36 ppm for the 2 ppm solution groups, and 3.6 ppm for the 20 ppm solution groups, which were equivalent to 282 g/ha and 2,825 g/ha, respectively. Under the low nutrient soil condition (Groups 1 to 3), etiolation of the leaves was observed and considered to be due to deficiency of trace components. Accordingly, a solution of the composition shown in Table 4 was applied in a volume of 100 ml/pot by irrigation, 20 days and 27 days after the transplantation of the soybean. Even in this case, the nutrient concentration was lower than that of the high soil nutrient groups (Groups 4 to 6). [table] Thirty-three days after the seeding, the number of root nodules (FIG. 7), the dry weight of root nodules (FIG. 8), the dry weight of aboveground parts (FIG. 9), and the dry weight of underground parts (FIG. 10) were measured. Under the same soil fertilizer condition, the applications of the 2 ppm and 20 ppm inosine solutions both increased all of the number of root nodules, the dry weight of root nodules, the dry weight of aboveground parts and the dry weight of underground parts, as compared with the distilled water groups (0 ppm groups).

A further experiment deals with plant roots. Conditions: applied to soil or hydroponic water; leaf vegetables, fruit vegetables, root vegetables, flowers and fruit trees (Japanese Patent No. 2927269); cited from earlier work.
The mark [5] stands for this setting: 2 ppm inosine solution, irrigation 10, 14 and 19 days after seeding, vs distilled water group.
The mark [6] stands for this setting: 10 ppm inosine solution, 5 ml foliar spray 10, 14 and 19 days after seeding, vs distilled water group.

Consider `OC[C@H]1O[C@@H](n2cnc3c(O)ncnc32)[C@H](O)[C@@H]1O` [Inosine, inosine], for which the “dry weight of aboveground parts” value is listed as “clearly increased” in experiment [1] and “increased” in the experiment on Soybean (Sachiyutaka) [4]. For the same compound, the “number of root nodules” value is on record as “clearly increased” in experiment [1], “increased” with Soybean (Sachiyutaka) [2] (setting [5]), “increased” with Soybean (Sachiyutaka) [3] (setting [6]) and “increased” in the experiment with Soybean (Sachiyutaka) [4]. Also, the “dry weight of root nodules” value in the experiment with Soybean (Sachiyutaka) [2] (setting [5]), in the experiment on Soybean (Sachiyutaka) [3] (setting [6]) and with Soybean (Sachiyutaka) [4] was “increased” in each case. Also, the “Dry weight of aboveground part” value in the experiment with Soybean (Sachiyutaka) [2] was 105.1; in the experiment with Soybean (Sachiyutaka) [2] (listed as inosine) it was “increased”; in the experiment on Soybean (Sachiyutaka) [3], 122.0; in the experiment on Soybean (Sachiyutaka) [3] (listed as inosine), “increased”. Besides, the “Dry weight of underground part” value with Soybean (Sachiyutaka) [2] is recorded as 107.2; in the experiment with Soybean (Sachiyutaka) [2] (listed as inosine), “increased”; with Soybean (Sachiyutaka) [3], 111.9; in the experiment on Soybean (Sachiyutaka) [3] (listed as inosine), “increased”. Moreover, the “dry weight of underground parts” value in the experiment with Soybean (Sachiyutaka) [4] is listed as “increased”. Also, in the experiment on plant roots, the “growth of plant roots” value was “promote the growth of plant roots”.
